Test results published in ChEMBL document CHEMBL1201862, “PubChem BioAssay data set” (2004).
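1) Cells in 96-well plates. 2) Compound, 48 h, 5 concentrations. 3) Linear interpolation between surrounding doses. 4) Unreached endpoint = highest concentration. GI50 is the concentration that inhibits growth by half.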 Active and inactive are the calls of the source. Cut-off read from the data, not from the text of the source: active = GI50 up to about 1.1 µM and inactive = higher.

Columns and labels:
Experiment in all cases: NCI tumour cell line growth inhibition, 48 h
SF-295 = test system: SF-295
IGROV-1 = test system: IGROV-1
CAKI-1 = test system: CAKI-1
SNB-19 = test system: SNB-19
A498 = test system: A498
MDA-MB-435 = test system: MDA-MB-435
HCT-116 = test system: HCT-116
MOLT-4 = test system: MOLT-4
UACC-62 = test system: UACC-62
DU-145 = test system: DU-145
K562 = test system: K562
786-0 = test system: 786-0
OVCAR-5 = test system: OVCAR-5
A549 = test system: A549
NCI-H23 = test system: NCI-H23
UACC-257 = test system: UACC-257
SR = test system: SR
COLO 205 = test system: COLO 205
SN12C = test system: SN12C
SW-620 = test system: SW-620
SK-MEL-28 = test system: SK-MEL-28
KM12 = test system: KM12
OVCAR-4 = test system: OVCAR-4
RPMI-8226 = test system: RPMI-8226
ACHN = test system: ACHN
NCI-H226 = test system: NCI-H226
NCI-H460 = test system: NCI-H460
HT-29 = test system: HT-29
TK-10 = test system: TK-10
OVCAR-3 = test system: OVCAR-3
HOP-62 = test system: HOP-62
SF-268 = test system: SF-268
Malme-3M = test system: Malme-3M
SNB-75 = test system: SNB-75
NCI/ADR-RES = test system: NCI/ADR-RES
HL-60 = test system: HL-60
BT-549 = test system: BT-549
U-251 = test system: U-251
SF-539 = test system: SF-539
MDA-N = test system: MDA-N
LOX IMVI = test system: LOX IMVI
SK-MEL-5 = test system: SK-MEL-5
T47D = test system: T47D
OVCAR-8 = test system: OVCAR-8
MCF7 = test system: MCF7
HCC 2998 = test system: HCC 2998
SK-OV-3 = test system: SK-OV-3
CCRF-CEM = test system: CCRF-CEM
UO-31 = test system: UO-31
EKVX = test system: EKVX
HCT-15 = test system: HCT-15

Measured: GI50

COc1ccc(CSc2ccccc2Cn2cccc2)cc1OC
87.9 µM: HCT-15
inactive: SF-295 25.5 µM | IGROV-1 > 100 µM | CAKI-1 93.1 µM | SNB-19 > 100 µM | A498 27.6 µM | MDA-MB-435 > 100 µM | HCT-116 89.1 µM | MOLT-4 > 10 µM | UACC-62 71.6 µM | DU-145 > 100 µM | K562 27 µM | 786-0 > 100 µM | OVCAR-5 > 100 µM | A549 98.2 µM | NCI-H23 10.9 µM | UACC-257 27.8 µM | SR 50.5 µM | COLO 205 > 100 µM | SN12C 34.8 µM | SW-620 > 100 µM | SK-MEL-28 > 100 µM | KM12 28.3 µM | OVCAR-4 39.8 µM | RPMI-8226 11.6 µM | ACHN 10.4 µM | NCI-H226 > 100 µM | NCI-H460 > 100 µM | HT-29 99.8 µM | TK-10 > 100 µM | OVCAR-3 16 µM | HOP-62 > 100 µM | SF-268 > 100 µM | Malme-3M 28.3 µM | SNB-75 > 100 µM | NCI/ADR-RES 34.3 µM | HL-60 20.7 µM | BT-549 46 µM | U-251 > 100 µM | SF-539 > 100 µM | MDA-N > 100 µM | LOX IMVI 73.5 µM | SK-MEL-5 22.4 µM | T47D 35.2 µM | OVCAR-8 > 100 µM | MCF7 36.2 µM | HCC 2998 56.6 µM | SK-OV-3 > 100 µM | CCRF-CEM 50.5 µM | UO-31 39.4 µM | EKVX 82.8 µM
